# Results reported in PubChem BioAssay (NCI).
#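 Values below derive from 48-hour exposures of cells grown in 96-well plates, with endpoints linearly interpolated between the two concentrations bracketing the appropriate inhibition level. At the TGI there is no net growth.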
# Key:
# Test in all cases: inhibition of tumour cell growth, NCI panel, 48 h
# SF-268 CNS = test system: SF-268 CNS
# SK-OV-3 ovarian = test system: SK-OV-3 ovarian
# K-562 leukemia = test system: K-562 leukemia
# HT29 colon = test system: HT29 colon
# HCT-15 colon = test system: HCT-15 colon
# CCRF-CEM leukemia = test system: CCRF-CEM leukemia
# U251 CNS = test system: U251 CNS
# NCI-H226 lung = test system: NCI-H226 lung
# LOX IMVI melanoma = test system: LOX IMVI melanoma
# TK-10 renal = test system: TK-10 renal
# MOLT-4 leukemia = test system: MOLT-4 leukemia
# SN12C renal = test system: SN12C renal
# OVCAR-4 ovarian = test system: OVCAR-4 ovarian
# BT-549 breast = test system: BT-549 breast
# SK-MEL-5 melanoma = test system: SK-MEL-5 melanoma
# A549 NSCLC = test system: A549 NSCLC
# RXF 393 renal = test system: RXF 393 renal
# UACC-62 melanoma = test system: UACC-62 melanoma
# SK-MEL-28 melanoma = test system: SK-MEL-28 melanoma
# CAKI-1 renal = test system: CAKI-1 renal
# OVCAR-3 ovarian = test system: OVCAR-3 ovarian
# KM12 colon = test system: KM12 colon
# MDA-MB-231 breast = test system: MDA-MB-231 breast
# OVCAR-5 ovarian = test system: OVCAR-5 ovarian
# HOP-62 NSCLC = test system: HOP-62 NSCLC
# OVCAR-8 ovarian = test system: OVCAR-8 ovarian
# COLO 205 colon = test system: COLO 205 colon
# UO-31 renal = test system: UO-31 renal
# NCI/ADR-RES ovarian = test system: NCI/ADR-RES ovarian
# UACC-257 melanoma = test system: UACC-257 melanoma
# MDA-N = test system: MDA-N
# NCI-H522 lung = test system: NCI-H522 lung
# EKVX NSCLC = test system: EKVX NSCLC
# SK-MEL-2 melanoma = test system: SK-MEL-2 melanoma
# 786-0 renal = test system: 786-0 renal
# HCC-2998 colon = test system: HCC-2998 colon
# HL-60(TB) leukemia = test system: HL-60(TB) leukemia
# NCI-H460 lung = test system: NCI-H460 lung
# DU-145 prostate = test system: DU-145 prostate
# M14 melanoma = test system: M14 melanoma
# SW-620 colon = test system: SW-620 colon
# MALME-3M melanoma = test system: MALME-3M melanoma
# SNB-19 CNS = test system: SNB-19 CNS
# HS 578T breast = test system: HS 578T breast
# NCI-H23 lung = test system: NCI-H23 lung
# T-47D breast = test system: T-47D breast
# SF-295 CNS = test system: SF-295 CNS
# IGROV1 ovarian = test system: IGROV1 ovarian
# HCT-116 colon = test system: HCT-116 colon
# HOP-92 NSCLC = test system: HOP-92 NSCLC
# MDA-MB-435 = test system: MDA-MB-435
# PC-3 prostate = test system: PC-3 prostate
# A498 renal = test system: A498 renal
# MCF7 breast = test system: MCF7 breast
# SNB-75 CNS = test system: SNB-75 CNS
# RPMI-8226 leukemia = test system: RPMI-8226 leukemia
# ACHN renal = test system: ACHN renal
# SF-539 CNS = test system: SF-539 CNS
smiles,measurement,setting,value
COc1cc(N(CCC#N)CCC#N)ccc1/C(N=Nc1ccccc1C)=N\NC(=O)c1ccc(C)cc1,TGI,SF-268 CNS,> 100 µM
same,TGI,SK-OV-3 ovarian,> 100 µM
same,TGI,K-562 leukemia,> 100 µM
same,TGI,HT29 colon,> 100 µM
same,TGI,HCT-15 colon,> 100 µM
same,TGI,CCRF-CEM leukemia,40.3 µM
same,TGI,U251 CNS,> 100 µM
same,TGI,NCI-H226 lung,> 100 µM
same,TGI,LOX IMVI melanoma,> 100 µM
same,TGI,TK-10 renal,> 100 µM
same,TGI,MOLT-4 leukemia,> 100 µM
same,TGI,SN12C renal,> 100 µM
same,TGI,OVCAR-4 ovarian,> 100 µM
same,TGI,BT-549 breast,> 100 µM
same,TGI,SK-MEL-5 melanoma,> 100 µM
same,TGI,A549 NSCLC,> 100 µM
same,TGI,RXF 393 renal,> 100 µM
same,TGI,UACC-62 melanoma,> 100 µM
same,TGI,SK-MEL-28 melanoma,> 100 µM
same,TGI,CAKI-1 renal,> 100 µM
same,TGI,OVCAR-3 ovarian,> 100 µM
same,TGI,KM12 colon,> 100 µM
same,TGI,MDA-MB-231 breast,> 100 µM
same,TGI,OVCAR-5 ovarian,> 100 µM
same,TGI,HOP-62 NSCLC,> 100 µM
same,TGI,OVCAR-8 ovarian,> 100 µM
same,TGI,COLO 205 colon,> 100 µM
same,TGI,UO-31 renal,> 100 µM
same,TGI,NCI/ADR-RES ovarian,> 100 µM
same,TGI,UACC-257 melanoma,> 100 µM
same,TGI,MDA-N,58.8 µM
same,TGI,NCI-H522 lung,> 100 µM
same,TGI,EKVX NSCLC,> 100 µM
same,TGI,SK-MEL-2 melanoma,> 100 µM
same,TGI,786-0 renal,> 100 µM
same,TGI,HCC-2998 colon,> 100 µM
same,TGI,HL-60(TB) leukemia,23 µM
same,TGI,NCI-H460 lung,> 100 µM
same,TGI,DU-145 prostate,> 100 µM
same,TGI,M14 melanoma,> 100 µM
same,TGI,SW-620 colon,> 100 µM
same,TGI,MALME-3M melanoma,> 100 µM
same,TGI,SNB-19 CNS,> 100 µM
same,TGI,HS 578T breast,> 100 µM
same,TGI,NCI-H23 lung,> 100 µM
same,TGI,T-47D breast,> 100 µM
same,TGI,SF-295 CNS,> 100 µM
same,TGI,IGROV1 ovarian,> 100 µM
same,TGI,HCT-116 colon,> 100 µM
same,TGI,HOP-92 NSCLC,> 100 µM
same,TGI,MDA-MB-435,> 100 µM
same,TGI,PC-3 prostate,> 100 µM
CCCCCCCCCCCCC/C=C/[C@@H](O)[C@H](COC1OC(CO)C(OC2OC(CO)C(O)C(OC3(C(=O)O)CC(O)C(NC(C)=O)C(C(O)C(O)CO)O3)C2O)C(O)C1O)N=[N+]=[N-] (some centres undefined),TGI,SF-268 CNS,41.3 µM
same,TGI,SK-OV-3 ovarian,78.8 µM
same,TGI,K-562 leukemia,60.6 µM
same,TGI,HT29 colon,58.5 µM
same,TGI,HCT-15 colon,> 100 µM
same,TGI,CCRF-CEM leukemia,43.4 µM
same,TGI,U251 CNS,36.1 µM
same,TGI,NCI-H226 lung,45.9 µM
same,TGI,LOX IMVI melanoma,36.6 µM
same,TGI,A498 renal,> 100 µM
same,TGI,TK-10 renal,> 100 µM
same,TGI,MOLT-4 leukemia,43.4 µM
same,TGI,MCF7 breast,> 100 µM
same,TGI,SN12C renal,> 100 µM
same,TGI,OVCAR-4 ovarian,> 100 µM
same,TGI,SK-MEL-5 melanoma,41.6 µM
same,TGI,A549 NSCLC,> 100 µM
same,TGI,RXF 393 renal,48.8 µM
same,TGI,SNB-75 CNS,37.1 µM
same,TGI,UACC-62 melanoma,37.1 µM
same,TGI,SK-MEL-28 melanoma,60.5 µM
same,TGI,CAKI-1 renal,> 100 µM
same,TGI,OVCAR-3 ovarian,> 100 µM
same,TGI,KM12 colon,34.1 µM
same,TGI,MDA-MB-231 breast,> 100 µM
same,TGI,OVCAR-5 ovarian,> 100 µM
same,TGI,HOP-62 NSCLC,46.2 µM
same,TGI,OVCAR-8 ovarian,44.9 µM
same,TGI,COLO 205 colon,33.9 µM
same,TGI,UO-31 renal,44.1 µM
same,TGI,RPMI-8226 leukemia,> 100 µM
same,TGI,NCI/ADR-RES ovarian,59.9 µM
same,TGI,ACHN renal,> 100 µM
same,TGI,UACC-257 melanoma,> 100 µM
same,TGI,MDA-N,> 100 µM
same,TGI,NCI-H522 lung,70.5 µM
same,TGI,EKVX NSCLC,> 100 µM
same,TGI,SK-MEL-2 melanoma,49.7 µM
same,TGI,786-0 renal,> 100 µM
same,TGI,HCC-2998 colon,> 100 µM
same,TGI,HL-60(TB) leukemia,80.8 µM
same,TGI,NCI-H460 lung,> 100 µM
same,TGI,DU-145 prostate,> 100 µM
same,TGI,M14 melanoma,34.3 µM
same,TGI,SW-620 colon,61.7 µM
same,TGI,MALME-3M melanoma,55.5 µM
same,TGI,SNB-19 CNS,93.7 µM
same,TGI,HS 578T breast,> 100 µM
same,TGI,SF-539 CNS,31.9 µM
same,TGI,NCI-H23 lung,> 100 µM
same,TGI,T-47D breast,> 100 µM
same,TGI,SF-295 CNS,88 µM
same,TGI,IGROV1 ovarian,85.5 µM
same,TGI,HCT-116 colon,> 100 µM
same,TGI,HOP-92 NSCLC,> 100 µM
same,TGI,MDA-MB-435,> 100 µM
same,TGI,PC-3 prostate,59.4 µM
